Entries after “also recorded” stand apart in the source; their conditions may differ.
Tests used:
[1] = tested on: human embryonic stem cell line H1; test: Real-time PCR of marker genes in H1 cells differentiated as in Example 2, T3 added at Stages 4 through 6; assay type: cell-based
Description: (§1) All primers were purchased from Applied Biosystems.
(§2) Cultures were differentiated into cells expressing markers characteristic of pancreatic endoderm/endocrine precursor cells by the protocol outlined below. • a. […] SD208 is 2-(5-Chloro-2-fluorophenyl)pteridin-4-yl]pyridin-4-yl-amine) having the structure of formula I, and disclosed in Molecular Pharmacology 2007, 72:152-161. SD208 is a 2,4-disubstituted pteridine, ATP-competitive inhibitor of the TGF-βR I kinase.
(§3) In some cultures, 1 μM T3 (T6397, Sigma, MO) was added at Stages 4 through 6. At the end of Stages 4 through 6, the control and treated cultures were analyzed by FACS and immunostaining. Furthermore, mRNA was collected for the control and treated cultures at Stages 2 through 6.

[2] = T3 vs T4; cited from earlier work
[3] = tested on: human embryonic stem cell line H1; test: Immunostaining for NKX6.1 and HB9 at Stage 6 day 6, T3 dose response (Example 4); assay type: cell-based; conditions: 0-1000 nM T3 at Stages 5 and 6, dose dependent
Source text: as §1
Forty-eight hours post-seeding, cultures were washed in incomplete PBS (phosphate buffered saline without Mg or Ca). Cultures were differentiated into cells expressing markers characteristic of pancreatic endoderm/endocrine precursor cells by the protocol outlined below. • a.

[4] = tested on: human embryonic stem cell line H1; test: Immunostaining for HB9 and NKX6.1 at Stage 6, control vs T3 treated cultures (Example 2); assay type: cell-based
Description: as §1, §2, §3

[5] = in the blood; cited from earlier work
[6] = 1 μM T3 added at Stages 4 through 6, real-time PCR
[7] = 1 μM T3 added at Stages 4 through 6, real-time PCR vs control
[8] = 1 μM T3 addition, real-time PCR

N[C@@H](Cc1cc(I)c(Oc2ccc(O)c(I)c2)c(I)c1)C(=O)O [T3, triiodothyronine]
insulin expression ([1]; 1 μM T3 added at Stages 4 through 6, at Stage 5, real-time PCR): moderately increasing | NKX2.2 expression [1, 6]: significantly decreased | NKX6.1 expression [1, 6]: apparently not affecting | PDX1 expression [1, 6]: apparently not affecting | ghrelin expression [1, 7]: significantly down regulated | glucagon expression [1, 7]: significantly down regulated | somatostatin expression [1, 7]: significantly down regulated | CDX2 (intestine marker) expression [1, 8]: not affecting | SOX2 (stomach marker) expression [1, 8]: suppressed | albumin (liver marker) expression [1, 8]: suppressed | potency relative to T4 [2]: three to four times more potent than T4 | number of HB9 positive cells in the NKX6.1 positive pancreatic endoderm precursor cells [3]: significantly enhanced | number of HB9 positive cells ([4]; Stage 6, T3 treated group vs control): increases; also recorded: significant increase | number of NKX6.1 positive cells showing expression of HB9 ([4]; T3 treated cultures): increased number

N[C@@H](Cc1cc(I)c(Oc2cc(I)c(O)c(I)c2)c(I)c1)C(=O)O [T4, thyroxine]
half-life relative to T3 [5]: longer half-life than T3

Source: patent publication US10947511B2, “Differentiation of human embryonic stem cells into pancreatic endocrine cells using thyroid hormone and/or alk5, an inhibitor of tgf-beta type 1 receptor” (Janssen Biotech, Inc., priority 2012, dated 2021)
